From patent US6605712B1, “Gene transcription and ionizing radiation: methods and compositions” (Arch Development Corporation, priority 1990, dated 2003)
Entries after “also recorded” stand apart in the source; their conditions may differ.

Experiments:
HL-205 cells = assay: Northern analysis of c-Jun mRNA; format: cell-based, human
Experimental: (§1) Cell culture. Clone HL-205 was isolated from the human HL-60 myeloid leukemia cell line. The phorbol ester-resistant variant of HL-60 cells, designated HL-525, was isolated by exposing wild-type cells to low concentrations of 12-0-tetradecanoylphorbol-13-acetate (TPA; 0.5 to 3 nM) for 102 passages. These cells were maintained in RPMI 1640 medium containing 20% fetal bovine serum (FBS) with 1 mM L-glutamine, 100 U/ml penicillin and 100 μg/ml streptomycin. Irradiation was performed at room temperature using a Gamma cell 1000 (Atomic Energy at Canada Ltd., Ontario) with a ^137CS source emitting at a fixed dose rate of 14.3 Gray (Gy)/min as determined by dosimetry.
(§2) Isolation and analysis of RNA. Total cellular RNA was purified by the guanidine isothiocyanate-cesium chloride technique. The RNA was analyzed by electrophoresis through 1% agarose-formaldehyde gels, transferred to nitrocellulose filters, and hybridized to the following 32P-labeled DNA probes: 1) the 1.8-kb BamHI/EcoRI insert of a human c-Jun gene purified from a pBluescript SK(+) plasmid; 2) the 1.5-kb EcoRI fragment of the murine Jun-B cDNA from the p465.20 plasmid; 3) Jun-D; 4) the 0.9-kb ScaI/NcoI insert of human c-fos gene purified from the pc-fos-1 plasmid; 5) the 2.0-kb PstI insert of a chicken β-actin gene purified from the pA1 plasmid; and 6) the 1.9-kb BamHI/PstI insert of a human TNF cDNA purified from the pE4 plasmid. Hybridizations were performed at 42° C. for 24 h in 50% (v/v) formamide, 2×SSC, 1×Denhardt's solution, 0.1% SDS, and 200 μg/ml salmon sperm DNA. The filters were washed twice in 2×SSC-0.1% SDS at room temperature and then in 0.1×SSC-0.1% SDS at 60° C. for 1 hour.

HL-525 cells [1] = assay: Northern analysis of c-Jun mRNA; format: cell-based, human
Experimental: as §1, §2

HL-525 cells [2] = assay: Nuclear run-on assay of c-Jun transcription; format: cell-based, human; settings: radiation alone 4-fold increase
Experimental: Nuclear run-on assays. Nuclei were isolated from 10^8 cells and suspended in 100 μl glycerol buffer (50 mM Tris-HCl, pH 8.3, 40% glycerol, 5 mM MgCl2, and 0.1 mM EDTA). An equal volume of reaction buffer (10 mM Tris-HCl, ph 8.0, 5 mM MgCl2, 100 mM KCl, 1 mM ATP, 1 mM CTP, 1 mM GTP, and 5 mM dithiothreitol) was added to the nuclei in suspension and incubated at 26° C. for 30 min with 250 μCi [α-^32P]UTP (3000 Ci/mmol; Dupont, Boston, Mass.). The nuclear RNA was isolated as described and hybridized to the following DNAs: 1) a PstI digest of the pA1 plasmid containing a fragment of the chicken β-action gene; and 2) a BamHI/EcoRI digest of the pBluescript SK(+) plasmid containing a fragment of the human c-Jun gene. The digested DNAs were run in 1% agarose gels and transferred to nitrocellulose filters. Hybridizations were performed with 10^7 cpm of ^32P-labeled RNA/ml in 10 mM Tris-HCl, ph 7.5, 4×SSC, 1 mM EDTA, 0.1% SDS, 2×Denhardt's solution, 40% formamide, and 100 μg/ml yeast tRNA for 72 h at 42° C. The filters were washed in: a) 2×SSC-0.1% SDS at 37° C. for 30 min; b) 200 ng/ml RNase A in 2×SSC at room temperature for 5 min; and c) 0.1×SSC-0.1% SDS at 42° C. for 30 min.

RIT-3 cells = assay: GAL4-Jun chimeric / G5BCAT co-transfection CAT assay; format: cell-based, human
From the text: HeLa and RIT-3 cells were transfected with two plasmids. Plasmid pSG-Jun5-253 contained the SV40 promoter (not transcriptionally responsive to radiation) upstream of an encoding region that encoded a chimeric protein (GAL4-Jun) comprising a sequence for Δ, A1, and A2 (Baichwal, 1990) and the DNA binding domain of the yeast GAL4 gene (the DNA binding domain of Jun was replaced with the DNA binding domain of the GAL4 gene, Baichwal, 1990). A second plasmid, G5BCAT was constructed to contain the DNA sequence that binds Gal4 protein placed 5′ of the Elb TATA box and upstream of the CAT reporter gene (Baichwal, 1990).
Two plasmids were transfected into HeLa and RIT-3 cells to study activation of the transcriptional potential of Jun protein following irradiation. pSG-Jun5-253 contains the SV40 promoter, which is not transcriptionally responsive to radiation, upstream of the coding sequence for Δ, A1, and A2 (Baichwal, 1990). The DNA binding domain of Jun was replaced with the DNA binding domain of the yeast GAL4 gene which encodes a protein involved in yeast transcriptional regulation (Baichwal, 1990). A second plasmid, G5BCAT contains the DNA sequence which binds Gal4 protein placed 5′ of the E1b TATA box upstream of the CAT reporter gene (Baichwal, 1990). […]

[3] = system: Egr-1 and Jun transcripts in cell lines 293 and SQ-20B; assay: Northern blot of Egr-1 and Jun transcripts after x-irradiation with inhibitors; format: cell-based; settings: for effect on x-ray-induced increase in Egr-1 and Jun transcripts: treatment prior to irradiation
Experimental: Cell line SQ-20B was pretreated with 1 μM TPA for 40 hours to down regulate PKC and then stimulated with TPA, serum, or x-ray (20 Gy). Controls included x-ray without TPA pretreatment, TPA (50 nM) without TPA pretreatment and untreated cells. RNA was isolated after one hour and hybridized to Egr-1. SQ-20B cells were preincubated with 100 μM H7 (1-(5-isoquinolinylsulfonyl)-2-methyl piperazine) or 100 μM HA1004 (N-[2-methyl-amino]ethyl)-5-isoquino-linesulfonamide) (Seikagaku America, Inc., St. Petersberg, Fla.) for 30 minutes or TPA pretreatment (1 μM) for 40 hours and followed by exposure to 20 Gy x-irradiation. RNA was extracted one hour after irradiation. Positive control cells treated under the same conditions but in the absence of inhibitor also received 20 Gy, while negative control cells received neither H7 nor X-ray. RNA was extracted at one hour after 20 Gy without inhibitor. Northern blots were hybridized to Egr-1 or 7S. 293 cells pretreated with the above inhibitors were irradiated, RNA was extracted after 3 hours and the Northern blot was hybridized to Jun and 7S probes.

c-Jun gene expression = settings: other studies; cited from earlier work
[4] = system: TNF-α-producing sarcomas (STSAR-5, -13, -33, and -43)
cell line STSAR-33 = assay: Colony-forming radiation-survival assay with TNF-α; format: cell-based, human
cell line HNSCC-68 = assay: Colony-forming radiation-survival assay with TNF-α; format: cell-based, human; settings: nonlethal TNF-α 10 units/ml
cell line SQ-20B = assay: Colony-forming radiation-survival assay with TNF-α; format: cell-based, human
[5] = system: 12 human epithelial tumor cell lines; settings: cited from earlier work
cell line STSAR-5 = assay: Colony-forming radiation-survival assay with TNF-α; format: cell-based, human; settings: STSAR-5, 100-700 cGy
[6] = system: Cell lines STSAR-13 and STSAR-43; assay: Colony-forming radiation-survival assay with TNF-α; format: cell-based, human

With `CC(=O)N[C@@H](CS)C(=O)O` [NAC, N-acetyl-L-cysteine] the “effect on constitutive levels of c-Jun transcripts” value (HL-205 cells; 30 mM) was “little if any effect on constitutive levels of c-Jun transcripts”, the “inhibition of x-ray-induced increases in c-Jun expression” value (HL-205 cells; 30 mM) was “over 90%” and the “effect on H2O2-induced c-Jun expression” value (HL-525 cells [1]) was “similarly inhibited”. The “effect on ara-C-induced c-Jun gene induction” value (HL-525 cells [1]) was “no detectable effect on induction of the c-Jun gene; also recorded: no detectable effect on ara-C-induced increases in c-Jun transcripts”, the “effect on x-ray-induced c-Jun expression” value (HL-525 cells [1]) was “inhibited” and the “inhibition of radiation-increased rate of c-Jun transcription” value (HL-525 cells [2]) was roughly 90%.

With `OO` [Plasmid H2O2, H2O2] the “effect of agent alone on c-Jun expression” value (HL-525 cells [1]) was “transiently induced c-Jun expression; also recorded: increased c-Jun expression”.

For `CC1CNCCN1S(=O)(=O)c1cccc2cnccc12` (centres unmarked) [Plasmid H7, 1-(5-isoquinolinylsulfonyl)-2-methyl piperazine], the “effect on x-ray induced increase in CAT activity” value (RIT-3 cells; added to RIT-3 cells transfected with pSG-Jun5-235 and G5BCAT) is listed as “abrogated the x-ray induced increase in CAT activity”, the “effect on x-ray-induced increase in Egr-1 and Jun transcripts” value (“effect on x-ray-induced increase” below) [3] is listed as “attenuated the increase in Egr-1 and Jun transcripts; also recorded: attenuation of Egr-1 and Jun gene induction by ionizing radiation” and the “effect on x-ray-induced c-Jun expression” value (c-Jun gene expression) is listed as “block x-ray-induced c-Jun gene product expression; also recorded: inhibited”.

With `CCCCCCCCCCCCCC(=O)O[C@@H]1[C@@H](C)[C@@]2(O)[C@@H](C=C(CO)C[C@]3(O)C(=O)C(C)=C[C@@H]23)[C@H]2C(C)(C)[C@]12OC(C)=O` [TPA, 12-0-tetradecanoylphorbol-13-acetate] the “increase in CAT activity following TPA stimulation” value (RIT-3 cells; HeLa and RIT-3 transfectants with pSG-Jun5-253 and G5BCAT) was 3.5 fold, the “effect on c-Jun expression” value (HL-205 cells; agent alone) was “increases in c-Jun expression that were detectable at 6 hours and reached maximal levels by 24 hours” and the “effect on expression of Jun-B, Jun-D, c-fos, fos-B” value (HL-525 cells [1]) was “little if any effect on expression of these genes”. The “effect on x-ray-induced c-Jun expression” value (HL-525 cells [1]) was “blocks x-ray-induced increases in c-Jun expression”, the “block of H2O2-induced increases in c-Jun expression” value (HL-525 cells [1]; pretreatment) was 80% and the “block of x-ray induced increases in c-Jun expression” value (HL-525 cells [1]; pretreatment 36-39 hours) was “over 75%”. The “effect on x-ray-induced increase” value [3] was “attenuated the increase in Egr-1 and Jun transcripts; also recorded: attenuation of Egr-1 and Jun gene induction by ionizing radiation”.

For `CCC/C=C/C=C/C(=O)O[C@H]1/C(=C/C(=O)OC)C[C@H]2C[C@H]([C@@H](C)O)OC(=O)C[C@H](O)C[C@@H]3C[C@H](OC(C)=O)C(C)(C)[C@](O)(C[C@@H]4C/C(=C/C(=O)OC)C[C@H](/C=C/C(C)(C)[C@]1(O)O2)O4)O3` [bryostatin], the “effect on H2O2-induced c-Jun expression” value (HL-525 cells [1]) was “no detectable effect” and the “effect on x-ray-induced c-Jun expression” value (HL-525 cells [1]) was “little if any effect on the induction of c-Jun transcripts by ionizing radiation”.

With `C[C@@H]1C[C@@H]([C@H](O)CC2CC(=O)NC(=O)C2)C(=O)[C@@H](C)C1` [cycloheximide] the “Jun mRNA after irradiation in pretreated cells” value ([3]; 293 cells pretreated with CHI) was “persistent elevation of Jun mRNA at 6 hours”, the “Egr-1 mRNA after irradiation in pretreated cells” value ([3]; SQ-20B cells pretreated with CHI) was “persistent elevation of Egr-1 at 3 hours” and the “effect of treatment alone on Egr-1 and Jun transcripts” value ([3]; normalized to 7S, no irradiation) was “low but detectable increase in Egr-1 and Jun transcripts”. For the same molecule, the “effect on x-ray-induced increase” value [3] was “superinduction of Jun and Egr-1”.

With TNF-α the cytotoxicity [4] was “cytotoxic”, the “reduction of plating efficiency (PE)” value ([4]; 1000 units/ml) was 60-90% and the “interaction between TNF-α and radiation” value (cell line STSAR-33; STSAR-33, TNF-α 10 units/ml) was “synergistic; also recorded: enhanced killing by radiation”. The “radiosensitivity (D0)” value (cell line STSAR-33; TNF-α 10 units/ml added 20 hr before irradiation, 80.4 cGy without TNF-α) was 60.4 cGy, the “plating efficiency (PE)” value (cell line STSAR-33; TNF-α at 1000 units/ml) was 30% and the “effect on radiation killing” value (cell line HNSCC-68) was “enhanced radiation killing”. The cytotoxicity (SQ-20B and SCC-61 cells) was “cytotoxic”, the “reduction of plating efficiency (PE)” value (SQ-20B and SCC-61 cells; 1000 units/ml) was 60-80% and the “killing with TNF-α alone” value (cell line SQ-20B; SQ-20B, FIG. 1B) was 85%. For the same molecule, the “radiosensitivity (D0)” value (cell line SQ-20B; TNF-α 1000 units/ml added 24 hr before x-rays, 239 cGy without TNF-α) was 130.4 cGy, the “effect on cell killing by radiation” value (cell line SQ-20B; TNF-α added after irradiation) was “did not enhance cell killing by radiation” and the “concentrations with cytotoxic effects” value [5] was 10 to 1000 units/ml. For the same molecule, the “killing by TNF and x-rays combined” value ([5]; seven of those ten cell lines) was “synergistic or additive killing”, the “interaction between TNF-α and radiation” value (cell line STSAR-5) was “additive” and the “interaction between TNF-α and radiation” value [6] was “no interaction was observed”.
